The results in this text go back to article PMC5564600 (Oncotarget, 2017).

What all share (experiment): biochemical
Holding throughout (format): binding

In assay [1] the target is T1, panel of 442 kinases (Homo sapiens, UniProt P00519, Y253F).
T1 construct: purchased Ambit Biosciences (scanMAXX KINOMEscan)
As to conditions: ABL1(Y253F)-phosphorylated; for remaining activity at 1 µM: read-out: % of control at 1 µM.

The target of assay [2] is T2, panel of 442 kinases (Homo sapiens, UniProt P00533, T790M).
T2 construct: purchased Ambit Biosciences (scanMAXX KINOMEscan)
Particulars: EGFR(T790M); for remaining activity at 1 µM: read-out: % of control at 1 µM.

In assay [3] the target is T3, panel of 442 kinases (Homo sapiens, UniProt P31152).
T3 construct: purchased Ambit Biosciences (scanMAXX KINOMEscan)
Particulars: ERK4; for remaining activity at 1 µM: read-out: % of control at 1 µM.

Assay [4] concerns the target T4, panel of 442 kinases (Homo sapiens, UniProt P36888, K663Q).
T4 construct: purchased Ambit Biosciences (scanMAXX KINOMEscan)
T4 sequence (P36888 27-993 K663Q): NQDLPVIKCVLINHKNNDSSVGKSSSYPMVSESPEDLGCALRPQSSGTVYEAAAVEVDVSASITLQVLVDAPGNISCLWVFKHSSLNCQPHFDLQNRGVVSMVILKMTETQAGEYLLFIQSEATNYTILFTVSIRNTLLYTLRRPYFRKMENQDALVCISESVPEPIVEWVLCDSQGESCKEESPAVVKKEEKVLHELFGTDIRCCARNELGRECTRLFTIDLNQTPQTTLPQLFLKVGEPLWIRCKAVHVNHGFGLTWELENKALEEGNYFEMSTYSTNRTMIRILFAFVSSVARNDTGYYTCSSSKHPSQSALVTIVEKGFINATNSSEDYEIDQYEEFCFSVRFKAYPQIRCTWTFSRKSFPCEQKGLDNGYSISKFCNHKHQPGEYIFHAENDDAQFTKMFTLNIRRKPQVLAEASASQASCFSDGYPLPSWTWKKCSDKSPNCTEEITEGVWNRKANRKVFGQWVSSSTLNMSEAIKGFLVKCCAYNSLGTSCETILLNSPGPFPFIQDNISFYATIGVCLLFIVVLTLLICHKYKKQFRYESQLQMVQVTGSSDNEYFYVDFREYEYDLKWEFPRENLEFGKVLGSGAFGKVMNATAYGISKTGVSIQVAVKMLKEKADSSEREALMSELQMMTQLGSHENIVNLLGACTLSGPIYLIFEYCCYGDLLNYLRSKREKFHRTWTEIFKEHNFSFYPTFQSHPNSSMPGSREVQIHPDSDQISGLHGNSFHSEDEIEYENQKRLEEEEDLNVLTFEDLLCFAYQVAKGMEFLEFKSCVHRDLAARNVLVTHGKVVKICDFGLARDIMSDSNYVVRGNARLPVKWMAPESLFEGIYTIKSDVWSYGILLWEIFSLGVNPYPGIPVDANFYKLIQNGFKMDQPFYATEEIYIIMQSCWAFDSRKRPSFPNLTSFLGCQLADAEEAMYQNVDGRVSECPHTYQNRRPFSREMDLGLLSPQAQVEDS
Particulars: FLT3(K663Q); for remaining activity at 1 µM: read-out: % of control at 1 µM.

The target in assay [5] is T5, panel of 442 kinases (Homo sapiens, UniProt Q9BZL6).
T5 construct: purchased Ambit Biosciences (scanMAXX KINOMEscan)
T5 sequence (Q9BZL6 1-878): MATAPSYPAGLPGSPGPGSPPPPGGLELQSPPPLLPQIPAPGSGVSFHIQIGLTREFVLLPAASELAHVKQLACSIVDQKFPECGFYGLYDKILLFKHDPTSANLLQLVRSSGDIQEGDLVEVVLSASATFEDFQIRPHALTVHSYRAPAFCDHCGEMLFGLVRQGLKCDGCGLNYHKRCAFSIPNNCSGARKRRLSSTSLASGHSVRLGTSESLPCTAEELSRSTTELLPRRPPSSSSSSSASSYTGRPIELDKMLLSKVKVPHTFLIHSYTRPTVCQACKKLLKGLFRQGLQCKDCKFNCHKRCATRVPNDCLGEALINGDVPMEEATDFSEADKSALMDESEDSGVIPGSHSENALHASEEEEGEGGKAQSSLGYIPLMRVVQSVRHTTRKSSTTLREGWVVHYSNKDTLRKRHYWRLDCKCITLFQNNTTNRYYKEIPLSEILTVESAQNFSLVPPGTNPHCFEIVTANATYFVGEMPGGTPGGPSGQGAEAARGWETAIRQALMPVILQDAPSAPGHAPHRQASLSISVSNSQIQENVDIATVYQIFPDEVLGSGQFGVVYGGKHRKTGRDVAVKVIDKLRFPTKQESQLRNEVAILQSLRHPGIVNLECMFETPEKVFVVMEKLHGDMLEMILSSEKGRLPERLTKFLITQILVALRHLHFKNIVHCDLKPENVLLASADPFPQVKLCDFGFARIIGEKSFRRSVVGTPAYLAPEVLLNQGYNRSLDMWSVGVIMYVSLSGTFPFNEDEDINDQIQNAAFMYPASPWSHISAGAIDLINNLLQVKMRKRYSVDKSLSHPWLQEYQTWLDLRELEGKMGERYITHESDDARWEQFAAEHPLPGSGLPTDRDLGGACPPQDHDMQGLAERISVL
Particulars: kinase PRKD2; for remaining activity at 1 µM: read-out: PRKD2 (% of control at 1 µM).

The mark [6] stands for this setting: 10 µM, read-out: % of control at 10 µM.

T3 sequence (P31152 whole entry): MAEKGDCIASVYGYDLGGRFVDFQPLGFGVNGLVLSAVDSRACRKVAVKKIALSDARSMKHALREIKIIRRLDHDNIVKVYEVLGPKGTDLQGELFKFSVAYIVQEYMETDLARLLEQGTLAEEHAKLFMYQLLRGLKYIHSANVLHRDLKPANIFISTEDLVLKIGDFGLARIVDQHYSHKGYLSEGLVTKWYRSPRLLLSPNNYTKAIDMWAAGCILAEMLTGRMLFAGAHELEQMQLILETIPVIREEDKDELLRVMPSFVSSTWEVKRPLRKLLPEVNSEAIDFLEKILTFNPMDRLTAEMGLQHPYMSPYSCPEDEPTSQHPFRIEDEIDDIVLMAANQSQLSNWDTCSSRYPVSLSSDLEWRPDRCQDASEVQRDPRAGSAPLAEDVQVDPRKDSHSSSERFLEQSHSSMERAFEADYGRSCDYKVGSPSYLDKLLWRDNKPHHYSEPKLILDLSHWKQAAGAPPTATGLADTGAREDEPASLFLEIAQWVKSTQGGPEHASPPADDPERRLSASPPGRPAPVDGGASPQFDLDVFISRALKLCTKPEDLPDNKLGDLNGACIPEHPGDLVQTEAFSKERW
T2 sequence (P00533 25-1210 T790M): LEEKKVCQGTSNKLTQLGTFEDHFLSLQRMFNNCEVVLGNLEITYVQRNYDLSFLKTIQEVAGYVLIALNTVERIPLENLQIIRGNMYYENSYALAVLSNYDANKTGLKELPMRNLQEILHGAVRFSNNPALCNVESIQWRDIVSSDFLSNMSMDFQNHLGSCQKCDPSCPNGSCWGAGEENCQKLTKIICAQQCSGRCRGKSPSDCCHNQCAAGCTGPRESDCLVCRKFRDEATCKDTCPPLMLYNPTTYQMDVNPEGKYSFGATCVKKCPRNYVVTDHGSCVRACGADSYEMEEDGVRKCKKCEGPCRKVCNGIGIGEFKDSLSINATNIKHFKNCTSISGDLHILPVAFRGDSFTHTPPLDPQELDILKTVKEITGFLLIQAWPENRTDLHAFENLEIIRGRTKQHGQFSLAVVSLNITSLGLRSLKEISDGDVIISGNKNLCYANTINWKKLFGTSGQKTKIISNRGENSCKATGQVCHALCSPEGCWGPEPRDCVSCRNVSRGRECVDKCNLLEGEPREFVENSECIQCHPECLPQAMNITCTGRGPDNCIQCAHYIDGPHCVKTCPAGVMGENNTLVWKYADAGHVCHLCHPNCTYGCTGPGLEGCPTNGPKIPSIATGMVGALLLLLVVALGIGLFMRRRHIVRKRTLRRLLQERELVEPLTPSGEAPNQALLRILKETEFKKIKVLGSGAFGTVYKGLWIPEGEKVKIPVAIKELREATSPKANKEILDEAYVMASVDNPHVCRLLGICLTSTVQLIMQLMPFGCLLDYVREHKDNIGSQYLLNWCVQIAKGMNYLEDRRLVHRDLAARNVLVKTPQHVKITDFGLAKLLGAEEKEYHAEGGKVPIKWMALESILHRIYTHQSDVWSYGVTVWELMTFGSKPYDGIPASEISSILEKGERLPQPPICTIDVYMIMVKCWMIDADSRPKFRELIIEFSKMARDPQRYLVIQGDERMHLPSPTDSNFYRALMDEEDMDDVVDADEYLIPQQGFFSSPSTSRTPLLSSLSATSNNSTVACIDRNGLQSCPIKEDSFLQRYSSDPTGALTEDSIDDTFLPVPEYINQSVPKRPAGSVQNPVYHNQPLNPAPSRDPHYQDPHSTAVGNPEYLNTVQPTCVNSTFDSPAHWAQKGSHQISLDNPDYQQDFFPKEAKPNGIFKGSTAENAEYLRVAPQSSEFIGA

`COc1ncc(-c2ccc3nccc(-c4ccnnc4)c3c2)cc1NS(=O)(=O)c1ccc(F)cc1F` [Omipalisib]: the remaining activity at 1 µM in assay [1], in assay [2], in assay [3], in assay [4] and in assay [5] was 100% each time.

Consider `Cn1c(=O)n(-c2ccc(C(C)(C)C#N)cc2)c2c3cc(-c4cnc5ccccc5c4)ccc3ncc21` [Dactolisib, 2-methyl-2-[4-(3-methyl-2-oxo-8-quinolin-3-yl-2,3-dihydroimidazo[4,5-c]quinolin-1-yl)-phenyl] propionitrile], for which the remaining activity at 1 µM was 82% in assay [1]; 100% in assay [2]; 100% in assay [3]; 63% in assay [4]; 93% in assay [5].

Take `Nc1cc(C(F)(F)F)c(-c2cc(N3CCOCC3)nc(N3CCOCC3)n2)cn1` [Buparlisib]: the remaining activity at 1 µM in assay [1] is 85%; in assay [2], 73%; in assay [3] it was 100%; in assay [4], 95%; in assay [5], 100%. Further, the remaining activity at 10 µM in assay [1] (setting [6]) is 94%; in assay [2] (setting [6]) it was 69%; in assay [3] (setting [6]) it was 100%; in assay [4] (setting [6]), 100%; in assay [5] (10 µM, read-out: PRKD2 (% of control at 10 µM)) it was 100%.

Turning to `FC(F)c1nc2ccccc2n1-c1nc(N2CCOCC2)nc(N2CCOCC2)n1` [ZSTK474, 2-(difluoromethyl)-1-[4,6-di(4-morpholinyl)-1,3,5-triazin-2-yl]-1H-benzimidazole], the remaining activity at 1 µM in assay [1] came to 96%; in assay [2], 100%; in assay [3] it was 85%; in assay [4] it was 100%; in assay [5] it was 93%.
